Experimental data taken from ChEMBL document CHEMBL1201862, “PubChem BioAssay data set” (2004).
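Tested at 5 concentrations; 48 h exposure; 96-well plates; endpoints linearly interpolated, else capped at highest concentration. GI50 is the concentration that inhibits growth by half.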 The source made the active and inactive calls. No stated cut-off is given here; in the data, active = GI50 up to about 1.1 µM and inactive = higher.

How the values were obtained:
Test in all cases: NCI-60 cell line screen, 48 h
A549 = system: A549
CAKI-1 = system: CAKI-1
DU-145 = system: DU-145
HCC 2998 = system: HCC 2998
HOP-62 = system: HOP-62
Hs-578T = system: Hs-578T
MCF7 = system: MCF7
MDA-MB-231 = system: MDA-MB-231
Malme-3M = system: Malme-3M
NCI-H23 = system: NCI-H23
NCI-H460 = system: NCI-H460
NCI/ADR-RES = system: NCI/ADR-RES
OVCAR-3 = system: OVCAR-3
SF-295 = system: SF-295
SK-OV-3 = system: SK-OV-3
U-251 = system: U-251
UO-31 = system: UO-31
SNB-75 = system: SNB-75
BT-549 = system: BT-549

Measured: GI50

O=C(O)CNC(=O)c1ccc(-c2ccccc2)cc1
inactive: A549 > 100 µM | CAKI-1 > 100 µM | DU-145 > 100 µM | HCC 2998 > 100 µM | HOP-62 > 100 µM | Hs-578T 75.7 µM | MCF7 > 100 µM | MDA-MB-231 > 100 µM | Malme-3M > 100 µM | NCI-H23 > 100 µM | NCI-H460 > 100 µM | NCI/ADR-RES > 100 µM | OVCAR-3 > 100 µM | SF-295 > 100 µM | SK-OV-3 > 100 µM | U-251 > 100 µM | UO-31 > 100 µM

O=C(NC(CS)C(=O)O)c1cccc2c(=O)c3ccccc3[nH]c12 (stereo not given)
inactive: A549 > 100 µM | DU-145 > 100 µM | HOP-62 > 100 µM | Hs-578T > 100 µM | MCF7 > 100 µM | MDA-MB-231 > 100 µM | Malme-3M > 100 µM | NCI-H23 > 100 µM | NCI/ADR-RES > 100 µM | OVCAR-3 > 100 µM | SF-295 > 100 µM | SK-OV-3 > 100 µM | SNB-75 > 100 µM | U-251 > 100 µM | UO-31 > 100 µM

COc1ccc2c(c1)OCC1Cc3cccc(OC)c3OC21 (stereo not given)
inactive: A549 70 µM | BT-549 26.9 µM | CAKI-1 > 100 µM | DU-145 > 100 µM | HCC 2998 93.3 µM | HOP-62 > 100 µM | MDA-MB-231 60.7 µM | Malme-3M 70.8 µM | NCI-H23 58.3 µM | NCI/ADR-RES 31.1 µM | OVCAR-3 51.2 µM | SF-295 64.6 µM | SK-OV-3 > 100 µM | U-251 > 100 µM | UO-31 30.3 µM

COC(=O)Cc1cc(=O)[nH]c2c1C(=O)CCC2
inactive: A549 > 100 µM | HCC 2998 > 100 µM | Malme-3M > 100 µM | NCI-H23 > 100 µM | NCI-H460 > 100 µM | OVCAR-3 > 100 µM | SF-295 > 100 µM | SK-OV-3 > 100 µM | U-251 > 100 µM | UO-31 > 100 µM

COC(=O)[C@@H]1CN(C(C)=O)C(=O)N1C(=O)OCc1ccccc1
inactive: A549 > 100 µM | CAKI-1 > 100 µM | DU-145 > 100 µM | HCC 2998 > 100 µM | HOP-62 > 100 µM | Hs-578T > 100 µM | MDA-MB-231 > 100 µM | Malme-3M > 100 µM | NCI-H23 > 100 µM | NCI-H460 > 100 µM | NCI/ADR-RES > 100 µM | OVCAR-3 > 100 µM | SF-295 > 100 µM | SK-OV-3 > 100 µM | U-251 > 100 µM | UO-31 > 100 µM

C[C@@H](c1ccccc1)N1C[C@@H](c2ccc3c(c2)OCO3)[C@@H]2C(=O)CCC[C@@H]21
inactive: A549 57.9 µM | CAKI-1 > 100 µM | DU-145 > 100 µM | HCC 2998 30.1 µM | HOP-62 > 100 µM | Hs-578T 72.9 µM | MCF7 27.8 µM | MDA-MB-231 63.8 µM | Malme-3M 31.3 µM | NCI-H23 61.8 µM | NCI-H460 54.5 µM | NCI/ADR-RES 81.7 µM | SF-295 79.3 µM | SK-OV-3 > 100 µM | SNB-75 36.4 µM | U-251 66.5 µM | UO-31 83 µM

Cc1cc(Cl)ccc1C(=O)c1ccc2ccccc2c1C(=O)O
inactive: A549 > 100 µM | BT-549 > 100 µM | CAKI-1 > 100 µM | DU-145 > 100 µM | HCC 2998 71.6 µM | MCF7 41.5 µM | MDA-MB-231 > 100 µM | Malme-3M > 100 µM | NCI-H23 > 100 µM | NCI-H460 > 100 µM | NCI/ADR-RES > 100 µM | OVCAR-3 > 100 µM | SF-295 98.9 µM | SNB-75 85.3 µM | U-251 > 100 µM | UO-31 > 100 µM

COC1/C(=C\C(C)=O)c2ccccc2N1C(C)=O (stereo not given)
inactive: A549 > 100 µM | CAKI-1 > 100 µM | HCC 2998 > 100 µM | HOP-62 > 100 µM | NCI-H23 > 100 µM | NCI-H460 > 100 µM | OVCAR-3 > 100 µM | SF-295 > 100 µM | SK-OV-3 > 100 µM | SNB-75 > 100 µM | U-251 > 100 µM | UO-31 > 100 µM

Cc1cc(C)c(OC(=O)Nc2cccc3ccccc23)c(-c2ccccc2)c1
inactive: A549 32.6 µM | CAKI-1 33.7 µM | DU-145 31.9 µM | HCC 2998 27.7 µM | HOP-62 65.8 µM | Hs-578T 25 µM | MCF7 52.5 µM | MDA-MB-231 25.5 µM | Malme-3M 32.4 µM | NCI-H23 30.5 µM | NCI-H460 47.9 µM | NCI/ADR-RES 26.9 µM | OVCAR-3 24.5 µM | SF-295 48.8 µM | SK-OV-3 67.6 µM | SNB-75 14.5 µM | U-251 37.8 µM | UO-31 7.52 µM

CO/N=C(\C(=O)Nn1cn[n+](CC(=O)[O-])c1)c1csc(N)n1
inactive: A549 > 10 µM | BT-549 > 10 µM | CAKI-1 > 10 µM | DU-145 > 10 µM | HCC 2998 > 10 µM | HOP-62 > 10 µM | MCF7 > 10 µM | MDA-MB-231 > 10 µM | NCI-H23 > 10 µM | NCI-H460 > 10 µM | SK-OV-3 > 10 µM | SNB-75 9.25 µM

CCCCN(CCCC)CCC(O)c1cc(-c2ccc(C(F)(F)F)cc2)nc(-c2ccc(C(F)(F)F)cc2)c1 (stereo not given)
inactive: CAKI-1 > 100 µM | DU-145 > 100 µM | HCC 2998 > 100 µM | HOP-62 > 100 µM | MCF7 > 100 µM | MDA-MB-231 > 100 µM | Malme-3M > 100 µM | NCI-H23 > 100 µM | NCI-H460 > 100 µM | NCI/ADR-RES > 100 µM | OVCAR-3 > 100 µM | SF-295 > 100 µM | SNB-75 > 100 µM | U-251 > 100 µM | UO-31 > 100 µM

COc1ccc2c(C(=O)O)cc3cc(OC)c(OC)cc3c2c1
inactive: A549 > 100 µM | HCC 2998 > 100 µM | Malme-3M > 100 µM | NCI-H23 > 100 µM | NCI-H460 > 100 µM | OVCAR-3 > 100 µM | SF-295 > 100 µM | SK-OV-3 > 100 µM | SNB-75 > 100 µM | U-251 > 100 µM | UO-31 > 100 µM

COc1ccc(CNc2nc(NCc3ccc(OC)cc3)nc(NC(C)C)n2)cc1
inactive: A549 6.24 µM | CAKI-1 20.3 µM | DU-145 19.2 µM | HCC 2998 28.6 µM | HOP-62 6.56 µM | Hs-578T 13.5 µM | MCF7 1.77 µM | Malme-3M 5 µM | NCI-H23 5.21 µM | NCI-H460 3.66 µM | NCI/ADR-RES 4.58 µM | OVCAR-3 3.33 µM | SF-295 3.96 µM | SK-OV-3 93.3 µM | SNB-75 7.08 µM | U-251 7.52 µM | UO-31 19.5 µM

CCCCc1cc2c(cc1O)CCC1C2CC[C@@]2(C)C1CC[C@@H]2O (stereo not given in full)
inactive: A549 13.5 µM | CAKI-1 16.6 µM | DU-145 18.3 µM | HCC 2998 19.9 µM | HOP-62 28.4 µM | Hs-578T 11.3 µM | MCF7 11.8 µM | MDA-MB-231 29.3 µM | Malme-3M 20.7 µM | NCI-H23 20.2 µM | NCI-H460 21.9 µM | NCI/ADR-RES 18.7 µM | OVCAR-3 13.7 µM | SF-295 13.3 µM | SK-OV-3 16.3 µM | SNB-75 13 µM | U-251 19.4 µM | UO-31 14.5 µM

CO/C(=N\N=C\c1ccc(Cl)cc1Cl)c1ccncc1
inactive: A549 > 10 µM | BT-549 > 10 µM | CAKI-1 > 10 µM | DU-145 > 10 µM | HOP-62 > 10 µM | MCF7 > 10 µM | MDA-MB-231 > 10 µM | Malme-3M > 10 µM | NCI-H23 > 10 µM | NCI-H460 > 10 µM | NCI/ADR-RES > 10 µM | OVCAR-3 > 10 µM | SF-295 > 10 µM | U-251 > 10 µM | UO-31 > 10 µM

O=C(Nc1ccc(Br)cc1)c1c(-c2ccccc2)c2ccc(O)cc2oc1=O
inactive: CAKI-1 > 10 µM | DU-145 > 10 µM | HCC 2998 > 10 µM | HOP-62 > 10 µM | Hs-578T > 10 µM | MCF7 > 10 µM | MDA-MB-231 > 10 µM | Malme-3M > 10 µM | NCI-H23 > 10 µM | NCI-H460 > 10 µM | NCI/ADR-RES > 10 µM | OVCAR-3 > 10 µM | SF-295 > 10 µM | SK-OV-3 > 10 µM | SNB-75 > 10 µM | U-251 > 10 µM | UO-31 > 10 µM

N#C/C(C(=O)NCc1ccccc1)=C(/N)N1CCCC1
inactive: A549 > 100 µM | CAKI-1 39.6 µM | DU-145 > 100 µM | HCC 2998 > 100 µM | HOP-62 > 100 µM | Hs-578T > 100 µM | MDA-MB-231 > 100 µM | Malme-3M > 100 µM | NCI-H23 > 100 µM | NCI-H460 > 100 µM | NCI/ADR-RES > 100 µM | OVCAR-3 > 100 µM | SF-295 > 100 µM | SK-OV-3 > 100 µM | U-251 > 100 µM | UO-31 46.3 µM

O=c1oc2cccnc2n1CCN1CCN(c2ccc(Oc3ccccc3)cc2)CC1
inactive: A549 > 100 µM | CAKI-1 > 100 µM | DU-145 > 100 µM | HCC 2998 52.8 µM | HOP-62 > 100 µM | Hs-578T > 100 µM | MCF7 > 100 µM | MDA-MB-231 > 100 µM | Malme-3M 41.6 µM | NCI-H23 > 100 µM | NCI-H460 77.8 µM | NCI/ADR-RES 32.5 µM | OVCAR-3 25.5 µM | SF-295 43 µM | SK-OV-3 > 100 µM | SNB-75 11.1 µM | U-251 56.9 µM | UO-31 41.1 µM
